Assay results reported in paper PMC5640672, “Molecular mechanism of synergy between the antimicrobial peptides PGLa and magainin 2” (Scientific Reports, 2017).

Tests used:
[1] = Fluorescence ANTS/DPX vesicle leakage assay in POPC/POPG (3:1); settings: ANTS/DPX, POPC/POPG (3:1) 100 nm vesicles, P/L about 1:160 per peptide, mixtures 1:1, 10 mM HEPES pH 7.5, 155 mM NaCl, 30 °C, 600 s, % of Triton-X-100 leakage, fluorescence, mean of n = 3
Procedure: The synergy was also investigated by a fluorescence ANTS/DPX leakage assay[24],[27],[30]. As described in the Methods section, leakage from POPC/POPG (3:1) vesicles was measured for 10 minutes after the addition of vesicles to a peptide solution. Leakage is expressed as percentage of the full leakage, which was obtained after addition of detergent. A synergy factor was defined to describe the enhancement of leakage of the mixture compared to the sum of the extent of leakage for each component. […] In general a synergy factor above 2 indicated synergy. […] In the leakage assay, this pore formation can be studied under more controlled conditions. Here we use two lipid compositions for the vesicles, which are mimicking bacterial membranes.
(§1) Leakage of small unilamellar vesicles induced by the peptides was studied using a standard fluorescence assay.
(§2) The appropriate lipids for each experiment were dissolved in CHCl3, together with 0.02 mol-% Rhodamine-PE (Rh-PE). […] This stock suspension was subjected to 10 freeze-thaw cycles and then frozen. Appropriate aliquots of the stock lipid suspension were unfrozen each day and extruded (41 times) through polycarbonate membranes with 100 nm pore size, and stored at room temperature overnight. The fluorophore and quencher outside the vesicles were removed by size exclusion chromatography using spin-columns (Pierce centrifuge column, 2 ml, Life Technologies GmbH, Darmstadt, Germany) filled with Sephacryl 100-HR (2 min, 1500 × g). For elution, a 10 mM HEPES buffer (pH 7.5) was used, containing 155 mM NaCl to balance the osmolarity. After extrusion and removal of the external dye and quencher, the lipid concentration usually decreases. Therefore, before each set of measurements a rhodamine spectrum was recorded to determine the actual concentration of lipids, which was referenced to a spectrum taken of vesicles made by sonification without any subsequent treatment.
(§3) Fluorescence experiments were performed on a FluoroMax2 spectrofluorimeter (HORIBA Jobin Yvon, Unterhaching, Germany) equipped with a thermostated sample holder and magnetic stirrer, using an excitation wavelength of 355 nm, an emission wavelength of 508 nm, and slit widths of 5 nm. The peptide solutions were placed in elution buffer in a 1 cm standard cuvette at 30 °C. 100 s after the start of the measurement lipid vesicles were added, and the intensity of the fluorescence at 508 nm was recorded. The leakage was measured during 600 s after addition of vesicles, and the measurement was terminated after addition of Triton-X-100 (0.25% v/v), which dissolved the vesicles, and yielded 100% leakage. To determine the background signal of the vesicles themselves, several blanks were recorded per measurement set. From the leakage values of the peptides alone and of the mixture of two peptides a synergy factor SF was calculated:3 SF=L(A+B)/[L(A)+L(B)] […] Measurements were repeated three times and average values and standard deviations calculated for the leakage and the synergy factors. An average SF ≥ 2 was taken to indicate synergy.

[2] = Fluorescence ANTS/DPX vesicle leakage assay in POPE/POPG/TOCL (72:23:5); settings: POPE/POPG/TOCL (72:23:5) 100 nm vesicles, P/L ≈ 1:30, mixtures 1:1, 10 mM HEPES pH 7.5, 155 mM NaCl, 30 °C, 600 s, % of Triton-X-100 leakage, mean of n = 3
From the text: It could be argued that POPC/POPG (3:1) is not the most appropriate model system to describe a bacterial membrane, which rarely contains PC lipids. We therefore also performed leakage in another lipid system, POPE/POPG/TOCL (72:23:5), which is a good model of E. coli membranes[45],[69],[70]. […] For all of the other mutants discussed below, leakage was also studied both in POPC/POPG as well as POPE/POPG/TOCL, but since the results (synergy or no synergy) were in all cases the same, the latter data will not be presented in the text. All leakage data in POPE/POPG/TOCL (72:23:5) for charge mutants are summarized in Supplementary Table S4.
as §1, §2
as §3, with “SF=L(A+B)/[L(A)+L(B)] Here, L(A) is the leakage found with peptide A alone, L(B) is the leakage found with peptide B alone, and L(A + B) is the leakage found with the mixture of peptides A and B. In all cases the P/L was the same for both peptides, alone and in the mixture, so that in the mixture the total P/L was twice that of the individual peptide measurements.” for “SF=L(A+B)/[L(A)+L(B)]”

[3] = Table S7 series (PGLa-to-MSI mutants)
[4] = Table S8 series (PGLa-to-MSI mutants)

Substance	Leakage, mean value ([1]; Table S11 series (MSI-to-PGLa mutants)) [%]	Leakage, mean value ([2]; Table S12 series (MSI-to-PGLa mutants)) [%]	Leakage, mean value [1, 3] [%]	Leakage, mean value [2, 4] [%]
KIAGKIAAIAGKIAKIAGKIA-NH2 [MtP-K8A, MSI-103 to PGLa single mutant K8A]	1.7	1.8	–	–
KIAGKIAKIAGKIAKIAGKIA-NH2 [MSI-103, designer-made AMP ([KIAGKIA]3-NH2) derived from PGLa, reference compound]	–	–	2.0	5.6
KIAGKIAKIAGKIAKVALKAL-NH2 [PtM-a1, PGLa to MSI-103 mutant, segment A replaced]	–	–	4.7	18.6
